From patent publication US8501446B2 (Vertex Pharmaceuticals Incorporated, priority 2004, dated 2013)

Columns and labels:
Assay type in all cases: biochemical
ROCK I (AA 6-553) = target: T1, ROCK I (AA 6-553) (Homo sapiens, UniProt Q13464); assay: ROCK inhibition assay, standard coupled enzyme system ("Enzyme"); details: enzyme-linked assay
T1 construct: ROCK I (AA 6-553)
In short: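 ROCK I (AA 6-553) at 45 nM and 30 °C with 45 μM ATP and 200 μM peptide, in 100 mM HEPES pH 7.5, 10 mM MgCl2, 25 mM NaCl, 2 mM DTT, 1.5% DMSO. ADP output read by a PK/LDH coupled system: 2.5 mM PEP, 350 μM NADH, 30 μg/ml PK, 10 μg/ml LDH.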

[1] = target: T2, full length Aurora-A (AA 1-403) (Homo sapiens, UniProt O14965); assay: Aurora-A inhibition assay, standard coupled enzyme system; details: average Ki if more than one value determined
T2 construct: full length Aurora-A (AA 1-403)
T2 sequence (O14965 1-403): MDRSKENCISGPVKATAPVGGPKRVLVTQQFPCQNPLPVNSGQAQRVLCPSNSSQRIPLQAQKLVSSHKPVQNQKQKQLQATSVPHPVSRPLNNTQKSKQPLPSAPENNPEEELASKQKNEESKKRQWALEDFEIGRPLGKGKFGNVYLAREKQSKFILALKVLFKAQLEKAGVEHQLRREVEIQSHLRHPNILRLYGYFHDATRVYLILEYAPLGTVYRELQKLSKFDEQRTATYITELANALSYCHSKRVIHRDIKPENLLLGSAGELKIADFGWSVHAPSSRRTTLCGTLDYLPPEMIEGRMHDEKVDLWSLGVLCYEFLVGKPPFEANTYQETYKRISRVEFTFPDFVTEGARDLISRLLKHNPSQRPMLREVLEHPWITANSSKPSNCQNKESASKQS

Aurora-B = Aurora-B (Homo sapiens, UniProt Q96GD4); assay: Aurora-B inhibition assay, radioactive assay; details: average Ki if more than one value determined
Sequence of Aurora-B (Q96GD4 whole entry): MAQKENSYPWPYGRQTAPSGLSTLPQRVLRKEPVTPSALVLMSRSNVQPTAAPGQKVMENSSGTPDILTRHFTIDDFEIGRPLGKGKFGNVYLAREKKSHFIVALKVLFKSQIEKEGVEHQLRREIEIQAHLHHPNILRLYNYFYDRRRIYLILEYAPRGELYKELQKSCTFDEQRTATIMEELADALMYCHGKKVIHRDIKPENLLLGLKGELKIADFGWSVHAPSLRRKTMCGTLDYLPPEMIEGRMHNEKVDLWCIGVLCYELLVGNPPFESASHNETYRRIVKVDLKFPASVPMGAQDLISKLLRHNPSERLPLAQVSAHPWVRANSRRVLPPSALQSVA
Protocol: Compounds were screened for their ability to inhibit JAK3 using a standard radioactive enzyme assay. 1.5 μL/well of a DMSO stock containing serial dilutions of a compound of the present invention (concentrations ranging from 667 μM to 46 nM) was placed in a 96 well polycarbonate plate. 50 μL per well of kinase buffer (100 mM HEPES (pH 7.4), 10 mM MgCl2, 25 mM NaCl, 1 mM DTT, and 0.01% bovine serum albumin (BSA)) containing 2 μM poly(Glu)4Tyr and 10 μM ATP was also added to the plate. To initiate the reaction, 50 μL kinase buffer containing 2 nM JAK3 enzyme was added. Final ATP concentration was 5 μM [γ-^33P] ATP (200 μCi ^33P ATP/μmol ATP (Perkin Elmer, Cambridge, Mass.). After 20 minutes at room temperature (25° C.), the reaction was stopped by adding 50 μL 20% trichloroacetic acid (TCA)/0.4 mM ATP to each well. The entire content of each well was then transferred to a 96 well glass fiber filter plate using a TomTek Cell Harvester. After washing, 60 μL scintillation fluid was added and ^33P incorporation detected using a Perkin Elmer TopCount. After removing mean background values for all of the data points the data was fit using Prism software to obtain a Ki(app). Inhibition of JAK2 was measured as above except that final poly(Glu)4Tyr concentration was 15 μM and final ATP concentration was 12 μM.
Some compounds were screened for their ability to inhibit ROCK using a standard radioactive enzyme assay. Assays were carried out in a solution containing 100 mM HEPES (pH 7.5), 10 mM MgCl2, 25 mM NaCl, 2 mM DTT, and 1.5% DMSO. Final substrate concentrations in the assay were 13 μM [γ-^33P] ATP (25 mCi ^33P ATP/mmol ATP, Perkin Elmer, Cambridge, Mass./Sigma Chemicals, St Louis, Mo.) and 27 μM Myelin Basic Protein (MBP). Final enzyme concentration in the assay was 5 nM ROCK. Assays were carried out at room temperature. 1.5 μl of DMSO stock containing serial dilutions of the compound of the present invention (concentrations ranging from 10 μM to 2.6 nM) was placed in a 96 well plate. 50 μl of Solution 1 (100 mM HEPES (pH 7.5), 10 mM MgCl2, […]) was added to the plate. The reaction was initiated by addition of 50 μl of Solution 2 (100 mM HEPES (pH 7.5), 10 mM MgCl2, 4 mM DTT, […] and 10 nM ROCK). After 2 hours the reaction was quenched with 50 μL of 30% trichloroacetic acid (TCA, Fisher) containing 9 mM ATP. Transfer of 140 μL of the quenched reaction to a glass fiber filter plate (Corning, Cat. No. 3511) was followed by washing 3 times with 5% TCA. 50 μL of Optima Gold scintillation fluid (Perkin Elmer) was added and the plates were counted on a Top Count (Perkin Elmer). After removing mean background values for all of the data points the data was fit using Prism software to obtain a Ki(app).
An assay stock buffer solution was prepared containing all of the reagents listed above with the exception of ATP and the test compound of interest. The assay stock buffer solution (60 μl) was incubated in a 96 well plate with 2 μl of the test compound of interest at final concentrations spanning 0.002 μM to 30 μM at 30° C. for 10 min. Typically, a 12 point titration was conducted by preparing serial dilutions (from 1 mM compound stocks) with DMSO of the test compounds in daughter plates. The reaction was initiated by the addition of 5 μl of ATP (final concentration 200 μM). Rates of reaction were obtained using a Molecular Devices Spectramax plate reader (Sunnyvale, Calif.) over 10 min at 30° C. The Ki values were determined from the rate data as a function of inhibitor concentration using computerized nonlinear regression (Prism 3.0, Graphpad Software, San Diego, Calif.). Aurora-C activity was screened in a similar manner using Aurora-C protein. Aurora-B activity was screened using a radioactive assay, such as described in Examples 1 and 2, but using Aurora-B protein.

T1 sequence (Q13464 6-553, species assumed): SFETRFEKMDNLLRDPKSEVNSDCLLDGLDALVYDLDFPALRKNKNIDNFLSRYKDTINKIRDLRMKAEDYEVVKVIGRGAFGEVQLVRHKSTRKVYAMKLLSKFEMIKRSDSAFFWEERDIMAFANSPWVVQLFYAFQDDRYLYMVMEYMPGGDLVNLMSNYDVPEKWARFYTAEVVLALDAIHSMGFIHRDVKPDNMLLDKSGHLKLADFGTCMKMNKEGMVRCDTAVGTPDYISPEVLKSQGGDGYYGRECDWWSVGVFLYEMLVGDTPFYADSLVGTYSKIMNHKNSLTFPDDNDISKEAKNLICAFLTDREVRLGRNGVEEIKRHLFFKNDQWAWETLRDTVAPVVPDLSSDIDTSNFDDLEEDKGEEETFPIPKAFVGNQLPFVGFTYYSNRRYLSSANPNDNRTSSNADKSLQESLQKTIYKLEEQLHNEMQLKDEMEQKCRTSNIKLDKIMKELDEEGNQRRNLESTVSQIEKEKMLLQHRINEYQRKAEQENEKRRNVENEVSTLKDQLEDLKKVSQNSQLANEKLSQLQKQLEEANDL

SMILES	Ki (ROCK I (AA 6-553))	Ki [1]	Ki (Aurora-B)
Clc1cnc2[nH]cc(-c3cccc(NC4CCCCCC4)n3)c2c1 [Compound 291]	500 to 5000 nM	< 500 nM	500 to 5000 nM
Cc1ccccc1Nc1nc(-c2c[nH]c3ncc(Cl)cc23)ncc1F [Compound 299]	< 500 nM	< 500 nM	< 500 nM
Cc1cccc(C)c1Nc1nc(-c2c[nH]c3ncc(Cl)cc23)ncc1F [Compound 300]	< 500 nM	< 500 nM	< 500 nM
Fc1cnc(-c2c[nH]c3ncc(Cl)cc23)nc1N[C@H]1CCc2ccccc21 [Compound 302]	500 to 5000 nM	< 500 nM	< 500 nM
COc1cccc([C@H](C)Nc2nc(-c3c[nH]c4ncc(Cl)cc34)ncc2F)c1 [Compound 305]	500 to 5000 nM	< 500 nM	< 500 nM
C[C@@H](Nc1nc(-c2c[nH]c3ncc(Cl)cc23)ncc1F)c1ccc([N+](=O)[O-])cc1 [Compound 310]	500 to 5000 nM	< 500 nM	< 500 nM
CC(C)Nc1nc(-c2c[nH]c3ncc(Cl)cc23)ncc1F [Compound 315]	500 to 5000 nM	< 500 nM	500 to 5000 nM
Cc1cnc(-c2c[nH]c3ncc(Cl)cc23)nc1N[C@@H](C)c1ccc(F)cc1 [Compound 322]	500 to 5000 nM	< 500 nM	< 500 nM
Fc1cnc(-c2c[nH]c3ncc(Cl)cc23)nc1NC1CCCc2ccccc21 (stereo not shown) [Compound 330]	500 to 5000 nM	< 500 nM	< 500 nM
COC(=O)COc1cccc([C@H](C)Nc2nc(-c3c[nH]c4ncc(Cl)cc34)ncc2F)c1 [Compound 335]	–	< 500 nM	< 500 nM
C[C@H](Nc1nc(-c2c[nH]c3ncc(Cl)cc23)ncc1F)c1cccc(OCCO)c1 [Compound 341]	500 to 5000 nM	< 500 nM	< 500 nM
CC[C@H](Nc1nc(-c2c[nH]c3ncc(Cl)cc23)ncc1F)c1ccccc1 [Compound 354]	500 to 5000 nM	< 500 nM	< 500 nM
C[C@H](Nc1nc(-c2c[nH]c3ncc(Cl)cc23)ncc1F)c1cccc(OC(=O)NO)c1 [Compound 375]	500 to 5000 nM	< 500 nM	< 500 nM
C#CCNc1nc(-c2c[nH]c3ncc(Cl)cc23)ncc1F [Compound 382]	–	< 500 nM	500 to 5000 nM
CNC(=O)[C@@H](Nc1nc(-c2c[nH]c3ncc(Cl)cc23)ncc1F)C(C)(C)C [Compound 385]	500 to 5000 nM	< 500 nM	< 500 nM
CNC(=O)[C@H](COC)Nc1nc(-c2c[nH]c3ncc(Cl)cc23)ncc1F [Compound 388]	500 to 5000 nM	< 500 nM	< 500 nM
C[C@H](Nc1nc(-c2c[nH]c3ncc(Cl)cc23)c(F)cc1C(=O)O)c1ccc(F)cc1 [Compound 397]	500 to 5000 nM	< 500 nM	< 500 nM
C[C@H](Nc1nc(-c2c[nH]c3ncc(Cl)cc23)nc2ccccc12)c1ccc(F)cc1 [Compound 404]	500 to 5000 nM	< 500 nM	500 to 5000 nM

SMILES	Ki (ROCK I (AA 6-553))	Ki [1]	Ki (Aurora-B)
C[C@H](Nc1nc(-c2c[nH]c3ncc(Cl)cc23)ncc1F)C(=O)NC1CCCCC1 [Compound 406]	500 to 5000 nM	< 500 nM	500 to 5000 nM
C[C@H](Nc1ccnc(-c2c[nH]c3ncc(Cl)cc23)n1)C(=O)NCC(F)(F)F [Compound 413]	500 to 5000 nM	< 500 nM	< 500 nM
C[C@H](Nc1cc(N2CCN(C)CC2)nc(-c2c[nH]c3ncc(Cl)cc23)n1)C(=O)NCC(F)(F)F [Compound 414]	500 to 5000 nM	500 to 5000 nM	500 to 5000 nM
C[C@H](Nc1cc(N2CCN(C(=O)OC(C)(C)C)CC2)nc(-c2c[nH]c3ncc(Cl)cc23)n1)C(=O)NCC(F)(F)F [Compound 415]	500 to 5000 nM	< 500 nM	< 500 nM
C[C@H](Nc1cc(N2CCNCC2)nc(-c2c[nH]c3ncc(Cl)cc23)n1)C(=O)NCC(F)(F)F [Compound 416]	500 to 5000 nM	< 500 nM	500 to 5000 nM
C[C@H](Nc1cc(NCCO)nc(-c2c[nH]c3ncc(Cl)cc23)n1)C(=O)NCC(F)(F)F [Compound 417]	500 to 5000 nM	< 500 nM	< 500 nM
C[C@H](Nc1nc(-c2c[nH]c3ncc(Cl)cc23)ncc1C(F)(F)F)C(=O)NCC(F)(F)F [Compound 418]	500 to 5000 nM	< 500 nM	< 500 nM
C[C@H](Nc1cc(NCCN(C)C)nc(-c2c[nH]c3ncc(Cl)cc23)n1)C(=O)NCC(F)(F)F [Compound 419]	–	500 to 5000 nM	500 to 5000 nM
O=C(CNc1nc(-c2c[nH]c3ncc(Cl)cc23)ncc1C(F)(F)F)NCC(F)(F)F [Compound 421]	500 to 5000 nM	< 500 nM	500 to 5000 nM
C[C@H](Nc1nc(-c2c[nH]c3ncc(Cl)cc23)ncc1[N+](=O)[O-])c1ccc(F)cc1 [Compound 422]	500 to 5000 nM	< 500 nM	< 500 nM
C[C@H](Nc1nc(-c2c[nH]c3ncc(Cl)cc23)ncc1N)c1ccc(F)cc1 [Compound 423]	500 to 5000 nM	< 500 nM	< 500 nM
C[C@@H](C(=O)NCC(F)(F)F)N(C)c1nc(-c2c[nH]c3ncc(Cl)cc23)ncc1C(F)(F)F [Compound 424]	500 to 5000 nM	< 500 nM	< 500 nM
C[C@H](Nc1cc(C(=O)N(C)C)nc(-c2c[nH]c3ncc(Cl)cc23)n1)c1ccc(F)cc1 [Compound 425]	500 to 5000 nM	< 500 nM	< 500 nM
C[C@H](Nc1nc(-c2c[nH]c3ncc(Cl)cc23)ncc1F)C(=O)NCCOc1ccccc1 [Compound 457]	–	500 to 5000 nM	500 to 5000 nM
C[C@H](Nc1nc(-c2c[nH]c3ncc(Cl)cc23)ncc1F)C(=O)NCCc1nc2ccccc2[nH]1 [Compound 459]	–	500 to 5000 nM	500 to 5000 nM
C[C@H](Nc1nc(-c2c[nH]c3ncc(Cl)cc23)ncc1F)C(=O)NCCCN1CCCC1=O [Compound 460]	–	500 to 5000 nM	500 to 5000 nM
C[C@H](Nc1nc(-c2c[nH]c3ncc(Cl)cc23)ncc1F)C(=O)NCCSCc1c(Cl)cccc1Cl [Compound 462]	–	500 to 5000 nM	500 to 5000 nM
CCCC[C@H](C)NC(=O)[C@H](C)Nc1nc(-c2c[nH]c3ncc(Cl)cc23)ncc1F [Compound 463]	–	< 500 nM	500 to 5000 nM
